Patent US12679839B2, “Cyclin-dependent kinase 7 (CDK7) non-covalent inhibitors” (JANSSEN PHARMACEUTICA NV, priority 2020, dated 2026)

Columns and labels:
[1] = system: RNA polymerase II Serine 5 phosphorylation (Rpb1 CTD), downstream substrate of CDK7; test: Imaging-based cellular RNA PolII Ser5 phosphorylation assay in A549 cells; format: cell-based, human; conditions: challenged with compound for 3 hours; for IC50: Homo sapiens, A549, 3 h, read-out: pRNA polII Ser5 (A549) pIC50 (converted)
Outline: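 A549 cells seeded 20 h in DMEM with 1% FBS, then exposed to compound for 3 h at 37 °C; fixed, methanol-permeabilized and immunostained for phospho-Rpb1 CTD Ser5, read by automated imaging. Signal normalized to DMSO (high) and 10 μM LDC4297 (low) controls; IC50 from four-parameter fit of % control vs concentration.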

[2] = molecular target: T1, CDK7/Cyclin H/MAT-1 complex (Homo sapiens, UniProt P50613); test: Flint assay, end-point fluorescence (5 nM CDK7/Cyclin H/MAT-1 complex); format: biochemical; conditions: for IC50: read-out: CDK7 (5 nM) pIC50 (converted)
T1 construct: Human CDK7 (amino acids 1-346); His6 (N); TEV protease cleavage site (N); made in house; host or cells: baculovirus-SF9 insect cells
T1 sequence (P50613 whole entry, the tested form may be a part): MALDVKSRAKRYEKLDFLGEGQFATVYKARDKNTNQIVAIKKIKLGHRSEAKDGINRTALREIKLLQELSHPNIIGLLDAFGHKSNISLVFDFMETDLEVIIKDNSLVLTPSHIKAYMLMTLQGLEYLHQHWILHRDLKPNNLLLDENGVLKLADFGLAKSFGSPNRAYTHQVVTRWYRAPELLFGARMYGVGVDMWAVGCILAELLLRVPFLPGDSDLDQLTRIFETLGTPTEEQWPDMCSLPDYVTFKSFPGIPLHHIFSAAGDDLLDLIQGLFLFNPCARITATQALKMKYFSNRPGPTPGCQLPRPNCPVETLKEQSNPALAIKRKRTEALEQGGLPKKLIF
T1 sequence (P51946 whole entry partner, the tested form may be a part): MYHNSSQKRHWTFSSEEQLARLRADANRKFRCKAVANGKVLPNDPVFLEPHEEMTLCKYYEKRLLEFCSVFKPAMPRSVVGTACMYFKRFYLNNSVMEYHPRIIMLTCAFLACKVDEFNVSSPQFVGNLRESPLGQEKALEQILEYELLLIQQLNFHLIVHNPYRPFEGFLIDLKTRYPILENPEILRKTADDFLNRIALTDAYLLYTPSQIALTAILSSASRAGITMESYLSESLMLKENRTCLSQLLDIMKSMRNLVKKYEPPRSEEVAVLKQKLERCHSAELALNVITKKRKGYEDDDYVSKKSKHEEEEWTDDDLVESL
T1 sequence (P51948 whole entry partner, the tested form may be a part): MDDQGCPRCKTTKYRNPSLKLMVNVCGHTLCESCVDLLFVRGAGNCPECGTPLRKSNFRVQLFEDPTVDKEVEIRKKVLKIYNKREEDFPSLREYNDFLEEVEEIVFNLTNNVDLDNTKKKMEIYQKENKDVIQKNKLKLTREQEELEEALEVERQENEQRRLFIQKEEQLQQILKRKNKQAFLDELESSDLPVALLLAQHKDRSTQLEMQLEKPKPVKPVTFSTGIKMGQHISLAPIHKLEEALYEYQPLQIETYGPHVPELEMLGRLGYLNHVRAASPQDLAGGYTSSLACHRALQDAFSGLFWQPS
Protocol: Human CDK7 (amino acids 1-346) containing an N-terminal His6-tag followed by a tobacco etch virus (TEV) protease cleavage site, human MAT1 (amino acids 1-309) and human cyclin H (amino acids 1-323) were co-expressed in the baculovirus-SF9 insect cell expression system to generate a trimeric complex. Cell pellets were collected 72 h post-infection and were resuspended by Dounce homogenization in 20 mM Hepes-NaOH (pH 8.0), 300 mM NaCl, 10% glycerol, 2 mM dithiothreitol DTT), and 20 mM Imidazole supplemented with cOmplete™ Protease Inhibitor Cocktail (Roche) and 25 U/mL Benzonase® Nuclease HC according to the manufacturer's instructions. Cells were lysed by passing through a Microfluidics M110Y Microfluidizer 3 times at 600 kPa followed by centrifugation at 38,000×g at 4° C. for 1 hour. The supernatant was loaded onto a pre-equilibrated HisTrap HP column and eluted in 20 mM Hepes-NaOH (pH 8.0), 50 mM NaCl, 10% glycerol, 2 mM DTT, and 400 mM Imidazole. The eluate was further purified by gel filtration on a Superdex S200 16/60 column and eluted with 20 mM Hepes-NaOH (pH 7.5), 50 mM NaCl, 10% Glycerol, 2 mM DTT. Fractions containing a trimeric complex of CDK7, cyclin H, and MAT1 in a 1:1:1 ratio were pooled and concentrated to 3 mg/mL in a 10 kDa MWCO concentrator, and diluted to a final concentration of 1.6 mg/mL in 11.1 mM Hepes-NaOH (pH 8.0), 27.8 mM NaCl, 1.1 mM DTT and 50% glycerol.
Compounds with potencies approaching the limit of detection of the assay (IC50≤10 nM) were further assessed in a more sensitive fluorescence end-point assay.
[formula] where νo is the rate in the absence of inhibitor, νmin is the rate at highest inhibitor concentration, and h is the Hill coefficient. Flint Assay (5 nM CDK7/Cyclin H/MAT-1 Complex)
The continuous absorbance assay was converted to an end-point fluorescence assay following the NADH fluorescence signal decrease at the excitation and emission wavelengths of 340 nm and 440 nm, respectively.
Under the same concentrations of substrates and coupling reagents used in the absorbance assay, the fluorescence assay was performed at a reduced concentration of the CDK7/Cyclin H/MAT-1 complex of 5 nM (final concentration) with a reaction time of 24 hours. The percent of inhibition was calculated by the following equation. Percent of inhibition=(Sample−NC)/(PC−NC)*100 where NC is the mean if negative control (reaction without inhibitor), and PC is the mean of positive control (reaction with complete inhibition).
Dosing curves were fitted using the following equation to obtain IC50: Y=Bottom+(Top−Bottom)/(1+10^((log IC50−X)*Hill slope)) where X=log10 of the compound concentration; top and bottom can be defined by PC and NC respectively. Imaging-Based Cellular RNA PolII Ser5 Phosphorylation Assay

Cc1cccc([C@H]2CN(C)CC[C@@H]2C(=O)N2Cc3nc(Nc4cnn(C)c4)ncc3[C@@H]3C[C@@H]32)c1 (relative stereo) [Compound 203]
IC50 [1]: 0.148 µM
IC50 [2]: 0.00537 µM

C[C@@H]1Cc2cnc(NC3CCN(S(=O)(=O)C4CC4)CC3)nc2CN1C(=O)N1CCN(C)C[C@@H]1c1ccccc1 [Compound 210]
IC50 [1]: 0.11 µM
CDK7 (5 nM) pIC50 [2]: 8.48

CO[C@H]1CC[C@H](Nc2ncc3c(n2)CN(C(=O)[C@H]2CCN(C)C[C@@H]2c2ccccc2)[C@H]2C[C@@H]32)CC1 [Compound 201]
IC50 [1]: ~0.0195 µM
CDK7 (5 nM) pIC50 [2]: 8.16

CN1CC[C@H](C(=O)N2Cc3nc(Nc4cnn(C)c4)ncc3[C@@H]3C[C@@H]32)[C@@H](c2ccccc2)C1 [Compound 200]
IC50 [1]: 0.324 µM
CDK7 (5 nM) pIC50 [2]: 7.77

C[C@@H]1Cc2cnc(N[C@H]3CC[C@H](C)CC3)nc2CN1C(=O)[C@H]1CCN(C)C[C@@H]1c1ccccc1 [Compound 13]
IC50 [1]: ~0.0339 µM
CDK7 (5 nM) pIC50 [2]: 8.85

C[C@@H]1Cc2cnc(N[C@H]3CCOC4(CCC4)C3)nc2CN1C(=O)[C@H]1CCN(C)C[C@@H]1c1ccccc1 (relative stereo) [Compound 9]
IC50 [1]: 0.309 µM
IC50 [2]: 0.00617 µM

C[C@@H]1Cc2cnc(NCc3cnn(C)c3)nc2CN1C(=O)[C@H]1CCN(C)C[C@@H]1c1ccccc1 [Compound 57]
IC50 [1]: 2.95 µM
CDK7 (5 nM) pIC50 [2]: 7.53

C[C@@H]1Cc2cnc(NCc3ccccc3)nc2CN1C(=O)[C@H]1CCN(C)C[C@@H]1c1ccccc1 [Compound 43]
IC50 [1]: 0.107 µM
CDK7 (5 nM) pIC50 [2]: 8.11

C[C@@H]1Cc2cnc(Nc3ccnn3C)nc2CN1C(=O)[C@H]1CCN(C)C[C@@H]1c1ccccc1 [Compound 79]
IC50 [1]: 2.29 µM
CDK7 (5 nM) pIC50 [2]: 7.78

C[C@@H]1Cc2cnc(NC3CCOCC3)nc2CN1C(=O)[C@H]1CCN(C)C[C@@H]1c1ccc(Cl)c(F)c1 [Compound 122b]
IC50 [1]: ~0.0631 µM
CDK7 (5 nM) pIC50 [2]: 8.5

CO[C@H]1CC[C@H](Nc2cc3c(cn2)C[C@H](C)N(C(=O)[C@@H]2CCN(C)C[C@H]2c2cccc(C)c2)C3)CC1 [Compound 177a]
pRNA polII Ser5 (A549) pIC50 [1]: 6.98
IC50 [2]: 0.0123 µM

Cc1cc(Nc2ncc3c(n2)CN(C(=O)[C@H]2CCN(C)C[C@@H]2c2ccccc2)[C@H](C)C3)ccn1 [Compound 78]
IC50 [1]: ~0.0575 µM
CDK7 (5 nM) pIC50 [2]: 8.37

C[C@@H]1Cc2cnc(NCc3ccsc3)nc2CN1C(=O)[C@H]1CCN(C)C[C@@H]1c1ccccc1 [Compound 48]
IC50 [1]: 0.132 µM
CDK7 (5 nM) pIC50 [2]: 7.92

C[C@@H]1Cc2cnc(NCc3cc(C(F)F)n(C)n3)nc2CN1C(=O)[C@H]1CCN(C)C[C@@H]1c1ccccc1 [Compound 56]
IC50 [1]: 5.13 µM
CDK7 (5 nM) pIC50 [2]: 7.44

C[C@@H]1Cc2cnc(NC3CCOCC3)nc2CN1C(=O)[C@H]1CCN(C)C[C@@H]1c1ccccc1 [Compound 47]
IC50 [1]: ~0.0708 µM
CDK7 (5 nM) pIC50 [2]: 8.3

C[C@H](Nc1ncc2c(n1)CN(C(=O)[C@H]1CCN(C)C[C@@H]1c1ccccc1)[C@H](C)C2)c1ccccn1 [Compound 20]
IC50 [1]: ~0.0141 µM
CDK7 (5 nM) pIC50 [2]: 8.19

[2H]C([2H])(Nc1ncc2c(n1)CN(C(=O)[C@H]1CCN(C)C[C@@H]1c1ccccc1)[C@H](C)C2)c1ccccc1 [Compound 70]
IC50 [1]: 0.148 µM
IC50 [2]: 0.00178 µM

CCn1ccc(CNc2ncc3c(n2)CN(C(=O)[C@H]2CCN(C)C[C@@H]2c2ccccc2)[C@H](C)C3)n1 [Compound 58]
IC50 [1]: 0.0229 µM
CDK7 (5 nM) pIC50 [2]: 8.63

C[C@@H]1Cc2cnc(NC3CCOCC3)nc2CN1C(=O)N1CCN(C)C[C@@H]1c1ccccc1 [Compound 204a]
IC50 [1]: 0.269 µM
CDK7 (5 nM) pIC50 [2]: 8.17

C[C@@H]1Cc2cnc(NC3CCS(=O)(=O)CC3)nc2CN1C(=O)[C@H]1CCN(C)C[C@@H]1c1ccccc1 [Compound 44]
IC50 [1]: 3.09 µM
CDK7 (5 nM) pIC50 [2]: 8.04

C[C@H]1Cc2cnc(NCc3ccn(C)n3)cc2CN1C(=O)[C@H]1CCN(C)C[C@@H]1c1ccccc1 (relative stereo) [Compound 174]
IC50 [1]: 0.0355 µM
IC50 [2]: 0.00263 µM

Cc1cccc([C@H]2CN(C(C)C)CC[C@@H]2C(=O)N2Cc3nc(NC4CCOCC4)ncc3C[C@H]2C)c1 [Compound 166]
IC50 [1]: ~0.0513 µM
CDK7 (5 nM) pIC50 [2]: 7.85

C[C@@H]1Cc2cnc(NC3Cc4ccccc4C3)nc2CN1C(=O)[C@H]1CCN(C)C[C@@H]1c1ccccc1 [Compound 29]
IC50 [1]: 0.0126 µM
CDK7 (5 nM) pIC50 [2]: 8.55

C[C@@H]1Cc2cnc(NC3CCC(OCC4CC4)CC3)nc2CN1C(=O)[C@H]1CCN(C)C[C@@H]1c1ccccc1 (some centres unmarked) [Compound 3]
IC50 [1]: 0.0603 µM
CDK7 (5 nM) pIC50 [2]: 8.3

C[C@@H]1Cc2cnc(NC3CCOCC3)nc2CN1C(=O)[C@@H]1CC[C@@H](N(C)C)CN1c1ccccc1 (mixture of isomers) [Compound 167]
IC50 [1]: 5.75 µM
CDK7 (5 nM) pIC50 [2]: 6.95

C[C@@H]1Cc2cnc(NCc3ccn(C)n3)nc2CN1C(=O)[C@H]1CCN(C)C[C@@H]1c1ccccc1 [Compound 1]
IC50 [1]: ~0.0457 µM
CDK7 (5 nM) pIC50 [2]: 8.61

CO[C@H]1CC[C@H](Nc2cc3c(cn2)C[C@H](C)N(C(=O)[C@H]2CCN(C)C[C@@H]2c2cccc(C)c2)C3)CC1 [Compound 177c]
IC50 [1]: ~0.0977 µM
IC50 [2]: 0.0224 µM

C[C@@H]1Cc2cnc(NC[C@@H]3CCOC3)nc2CN1C(=O)[C@H]1CCN(C)C[C@@H]1c1ccccc1 [Compound 62]
IC50 [1]: 0.617 µM
CDK7 (5 nM) pIC50 [2]: 8.33

C[C@@H]1Cc2cnc(NC3CCS(=O)(=O)CC3)nc2CN1C(=O)N1CCN(C)C[C@@H]1c1ccccc1 [Compound 214]
IC50 [1]: 3.55 µM
CDK7 (5 nM) pIC50 [2]: 7.8

C[C@H]1Cc2cnc(NC3CCOCC3)nc2CN1C(=O)N1CCN(C)C[C@H]1c1cccc(F)c1 (relative stereo) [Compound 212]
IC50 [1]: 0.182 µM
IC50 [2]: 0.00479 µM

C[C@@H]1Cc2cnc(Nc3cnn(C)c3)nc2CN1C(=O)[C@H]1CCN(C)C[C@@H]1c1ccccc1 [Compound 82]
IC50 [1]: ~0.0468 µM
CDK7 (5 nM) pIC50 [2]: 8.67

CO[C@H]1CC[C@H](Nc2ncc3c(n2)CN(C(=O)[C@H]2CCN(C)C[C@@H]2c2ccccc2)C2(CC2)C3)CC1 [Compound 192]
IC50 [1]: 2.88 µM
CDK7 (5 nM) pIC50 [2]: 6.84

C[C@@H]1Cc2cnc(NCc3ccn(C)n3)nc2CN1C(=O)[C@@H]1CCN(C)C[C@H]1c1cccc(OC(F)(F)F)c1 (relative stereo) [Compound 127]
IC50 [1]: 1.51 µM
IC50 [2]: 0.0759 µM

C[C@@H]1Cc2cnc(NCc3ccn(C)n3)nc2CN1C(=O)[C@H]1CCN(C)C[C@@H]1c1cccc(OC(F)(F)F)c1 (relative stereo) [Compound 128]
IC50 [1]: 0.102 µM
IC50 [2]: 0.00676 µM

C[C@@H]1Cc2cnc(NCc3ccn(C)n3)nc2CN1C(=O)N1CCN(C)C[C@@H]1c1ccccc1 [Compound 213]
IC50 [1]: 1.38 µM
CDK7 (5 nM) pIC50 [2]: 6.9

Cc1cn(C)nc1CNc1ncc2c(n1)CN(C(=O)[C@H]1CCN(C)C[C@@H]1c1ccccc1)[C@H](C)C2 [Compound 61]
IC50 [1]: 0.912 µM
CDK7 (5 nM) pIC50 [2]: 7.97

C[C@@H]1Cc2cnc(NC3CCN(S(=O)(=O)N(C)C)CC3)nc2CN1C(=O)N1CCN(C)C[C@@H]1c1ccccc1 [Compound 211]
IC50 [1]: 0.724 µM
CDK7 (5 nM) pIC50 [2]: 7.88

C[C@@H]1Cc2cnc(Nc3ccnc(C(F)F)c3)nc2CN1C(=O)[C@H]1CCN(C)C[C@@H]1c1ccccc1 [Compound 75]
IC50 [1]: 0.0575 µM
CDK7 (5 nM) pIC50 [2]: 8.04

Cc1cc(CNc2ncc3c(n2)CN(C(=O)[C@H]2CCN(C)C[C@@H]2c2ccccc2)[C@H](C)C3)nn1C [Compound 65]
IC50 [1]: 6.61 µM
CDK7 (5 nM) pIC50 [2]: 7.33

C[C@H]1Cc2cnc(NC3CCOCC3)cc2CN1C(=O)[C@H]1CCN(C)C[C@@H]1c1ccccc1 (single isomer, unassigned) [Compound 171a]
IC50 [1]: 0.288 µM
IC50 [2]: 0.00575 µM
